Test results reported in publication PMC7071032, “In Vitro Inhibition of Hsp90 Protein by Benzothiazoloquinazolinequinones Is Enhanced in The Presence of Ascorbate. A Preliminary In Vivo Antiproliferative Study” (Molecules, 2020).

Experiments:
[1] = tested on: non-tumor fibroblasts AG 1523; test: MTT reduction assay, non-tumor fibroblasts; assay type: cell-based; conditions: Homo sapiens, AG1523, 48 h incubation, read-out: IC50 ± SEM AG 1523
Procedure: (§1) As positive control, two well-known anticancer drugs, namely TAM and 5-FU, were also tested on these cell lines. […] Regarding 5-FU, it is a broad-spectrum chemotherapeutic drug used to treat a variety of malignancies. Particularly, it has a long history of use against bladder tumors.
(§2) Cell culture conditions were the same as reported elsewhere. Briefly, cell lines were kept in DMEM containing 10% fetal calf serum. In addition, 100 U/mL of penicillin and 100 µg/mL streptomycin from Gibco (Grand Island, NY, USA) were further added. Cell cultures were kept at 37 °C under an atmosphere of 95% air/5% CO2 and 100% humidity. Sodium L-ascorbate, menadione (vitamin K3), TAM, and 5-FU were purchased from Sigma (St. Louis, MO, USA).
(§3) The cytotoxicity of the quinones was assessed by following the reduction of MTT (3-(4,5-dimethylthiazol-2-yl)-2,5-diphenyltetrazolium bromide) to formazan blue and the capability of cancer cells to proliferate, namely a clonogenic assay.
(§4) Cells were seeded into 96-well plates at a density of 10,000 cells/well for 24 h and then incubated for 48 h with or without the quinone derivatives. […] The IC50 values were determined using the GraphPad Prism software (San Diego, CA, USA). Further incubation procedures and optical density reading of colored solutions were performed according to Benites et al..

[2] = tested on: MCF-7 (breast) cells; test: MTT reduction assay, MCF-7 cells; assay type: cell-based; conditions: Homo sapiens, MCF7, 48 h incubation, read-out: IC50 ± SEM MCF-7
Procedure: as §1, §2, §3, §4

[3] = tested on: panel of cancer cells (T24, DU-145, MCF-7); test: MTT reduction assay, panel of cancer cells (means, ranges, selectivity index); assay type: cell-based, human; conditions: IC50 values of fibroblasts (AG 1523)/IC50 values of tumor cells (T24, DU-145, MCF-7)
Procedure: as §1
Such a selective index was calculated as the ratio between IC50 values of healthy cells/IC50 values in cancer cells.
as §4

[4] = tested on: DU-145 (prostate) cells; test: MTT reduction assay, DU-145 cells; assay type: cell-based; conditions: Homo sapiens, DU-145, 48 h, read-out: IC50 ± SEM DU-145
Procedure: as §1, §2, §3, §4

[5] = tested on: T24 (bladder) cells; test: MTT reduction assay, T24 cells; assay type: cell-based; conditions: Homo sapiens, T-24, 48 h incubation, read-out: IC50 ± SEM T24
Procedure: as §1, §2, §3, §4

[6] = tested on: Hsp90; test: Immunoblot of Hsp90 protein integrity in T24 cells; assay type: cell-based, human; conditions: 5 µM quinone plus 1 mM ascorbate, 4 h
Procedure: Nevertheless, when incubation was done in the presence of 1 mM ascorbate (vitamin C) plus quinones (including menadione), a new peptide fragment of about 70 kD was detected by the antibody against Hsp90.
Figure 1 Effects of selected quinones of Hsp90 (A) and poly(ADPribose)polymerase (PARP) (B) protein integrity in T24 cells. Cancer cells were incubated for 4 h with 5 µM menadione (K3), 15, 16, 19, or 20 either in the absence or in the presence of 1 mM ascorbate (Asc). Ctl represents control untreated cells. * p < 0.05 as compared to control conditions.
Cancer cells were incubated for 4 h in the absence and in the presence of compounds. Afterward, cells were washed twice with ice-cold PBS and then resuspended in RIPA lysis buffer supplemented with 1% protease inhibitor cocktail (Sigma–Aldrich, St. Louis, MO, USA) and 3% phosphatase inhibitor cocktail (Calbiochem, Darmstadt, Germany). Treatment of samples and electrophoresis conditions were conducted as previously reported. Mouse monoclonal primary antibodies against hsp90α/β C-terminus (F8), and against β-actin (clone AC-15), were purchased from Santa Cruz Biotechnology (Santa Cruz, CA, USA) and from Abcam (Cambridge, UK), respectively. Rabbit polyclonal antibodies against PARP were purchased from BD Biosciences (San Diego, CA, USA). […]

[7] = tested on: poly(ADPribose)polymerase (PARP); test: Immunoblot of PARP protein integrity in T24 cells; assay type: cell-based, human; conditions: 5 µM, 4 h, regardless of the presence of ascorbate (1 mM)
Procedure: Figure 1 Effects of selected quinones of Hsp90 (A) and poly(ADPribose)polymerase (PARP) (B) protein integrity in T24 cells. […] Ctl represents control untreated cells. * p < 0.05 as compared to control conditions. […] This was the case regardless of the presence of ascorbate (1 mM). The obtained results make a potential role of apoptosis unlikely to be the underlying mechanism of cell impairment induced by quinones, including menadione. Indeed, PARP is a substrate of caspase-3, therefore, when an apoptosis process is triggered, it is expected that PARP protein will be cleaved yielding a second protein band also recognized by the anti-PARP antibody. Cancer cells were incubated for 4 h in the absence and in the presence of compounds. Afterward, cells were washed twice with ice-cold PBS and then resuspended in RIPA lysis buffer supplemented with 1% protease inhibitor cocktail (Sigma–Aldrich, St. Louis, MO, USA) and 3% phosphatase inhibitor cocktail (Calbiochem, Darmstadt, Germany). Treatment of samples and electrophoresis conditions were conducted as previously reported. Mouse monoclonal primary antibodies against hsp90α/β C-terminus (F8), and against β-actin (clone AC-15), were purchased from Santa Cruz Biotechnology (Santa Cruz, CA, USA) and from Abcam (Cambridge, UK), respectively. Rabbit polyclonal antibodies against PARP were purchased from BD Biosciences (San Diego, CA, USA). […]

With CCCCCC1(O)C2=C(N=C3Sc4cc(C)ccc4N31)C(=O)c1ccccc1C2=O (centres unmarked) [Compound 17] the IC50 [1] was 7.5 ± 0.69 µM, the IC50 [2] was 5.26 ± 0.22 µM and the “MSI: mean selective index” value [3] was 1.09. It also gave an IC50 [4] of 8.46 ± 0.31 µM, a melting point of 129 to 129.5 °C and an IC50 [5] of 6.86 ± 0.33 µM.

With CC1=CC(=O)c2ccccc2C1=O [menadione, reference compound] the Hsp90 protein cleavage [6] was “strong Hsp90 cleavage” and the PARP cleavage [7] was “neither the quinone derivatives nor menadione induced a detectable PARP cleavage”.
